# According to patent US10479780B2, “Aminopyrazole derivatives” (Chugai Seiyaku Kabushiki Kaisha, priority 2015, dated 2019):
# Columns and labels:
# Type in all cases: biochemical
# [1] = target: T1, human Yes1 enzyme (Homo sapiens, UniProt P07947); assay: Yes1 enzyme inhibitory activity (time-resolved fluorometry, biotinylated peptide phosphorylation); conditions: read-out: YES_IC50
# T1 construct: made in house
# In short: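 Inhibition was expressed against a compound-free control to give IC50, using TR-FRET read-out (Eu-cryptate anti-pTyr antibody, streptavidin-XL665).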
# [2] = target: T2, human Src enzyme (Homo sapiens, UniProt P12931); assay: Src enzyme inhibitory activity (time-resolved fluorometry, biotinylated peptide phosphorylation); conditions: read-out: SRC_IC50
# T2 construct: purchased Carna Biosciences, Inc. 08-173
# T2 sequence (P12931 whole entry): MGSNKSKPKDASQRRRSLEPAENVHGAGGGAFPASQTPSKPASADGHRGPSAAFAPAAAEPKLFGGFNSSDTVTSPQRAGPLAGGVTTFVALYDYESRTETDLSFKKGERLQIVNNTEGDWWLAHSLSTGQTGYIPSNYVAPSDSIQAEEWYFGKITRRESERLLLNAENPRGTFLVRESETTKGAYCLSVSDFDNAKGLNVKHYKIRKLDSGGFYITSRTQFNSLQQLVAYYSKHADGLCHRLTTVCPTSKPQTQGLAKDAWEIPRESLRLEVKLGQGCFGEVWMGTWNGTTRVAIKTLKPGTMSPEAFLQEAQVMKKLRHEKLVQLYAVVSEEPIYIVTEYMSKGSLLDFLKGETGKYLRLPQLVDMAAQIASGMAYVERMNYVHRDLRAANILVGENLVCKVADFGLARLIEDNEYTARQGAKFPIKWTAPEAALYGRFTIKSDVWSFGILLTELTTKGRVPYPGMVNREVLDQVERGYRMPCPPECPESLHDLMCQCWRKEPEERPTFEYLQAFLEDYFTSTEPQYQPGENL
# In short: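 Compounds were tested for blocking tyrosine phosphorylation of a biotinylated peptide substrate by recombinant human Src. Phosphorylated product was quantified by time-resolved fluorometry using europium cryptate and XL665 conjugates, and IC50 was calculated against the compound-free control.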
# [3] = target: T3, human Lck enzyme (Homo sapiens, UniProt P06239); assay: Lck enzyme inhibitory activity (time-resolved fluorometry, biotinylated peptide phosphorylation); conditions: read-out: LCK_IC50
# T3 construct: purchased Carna Biosciences, Inc. 08-170
# T3 sequence (P06239 whole entry): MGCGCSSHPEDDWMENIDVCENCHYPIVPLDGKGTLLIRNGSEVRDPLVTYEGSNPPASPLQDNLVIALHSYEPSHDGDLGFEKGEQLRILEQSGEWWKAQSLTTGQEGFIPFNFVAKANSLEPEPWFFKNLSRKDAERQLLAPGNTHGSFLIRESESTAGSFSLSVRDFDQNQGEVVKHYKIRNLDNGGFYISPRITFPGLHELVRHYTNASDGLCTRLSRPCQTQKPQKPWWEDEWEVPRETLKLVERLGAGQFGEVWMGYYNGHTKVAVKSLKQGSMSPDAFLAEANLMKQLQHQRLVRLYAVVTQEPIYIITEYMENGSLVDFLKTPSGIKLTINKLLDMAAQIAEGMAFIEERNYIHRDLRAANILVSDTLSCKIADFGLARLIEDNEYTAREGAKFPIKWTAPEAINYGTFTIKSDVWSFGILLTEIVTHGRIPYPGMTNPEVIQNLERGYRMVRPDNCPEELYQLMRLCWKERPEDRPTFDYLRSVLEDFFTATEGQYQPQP
# In short: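 Readout pairs a europium cryptate-labelled anti-phosphotyrosine antibody with XL665-streptavidin, measured by time-resolved fluorescence. IC50 derived from percent inhibition against untreated controls.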
# T1 sequence (P07947 whole entry): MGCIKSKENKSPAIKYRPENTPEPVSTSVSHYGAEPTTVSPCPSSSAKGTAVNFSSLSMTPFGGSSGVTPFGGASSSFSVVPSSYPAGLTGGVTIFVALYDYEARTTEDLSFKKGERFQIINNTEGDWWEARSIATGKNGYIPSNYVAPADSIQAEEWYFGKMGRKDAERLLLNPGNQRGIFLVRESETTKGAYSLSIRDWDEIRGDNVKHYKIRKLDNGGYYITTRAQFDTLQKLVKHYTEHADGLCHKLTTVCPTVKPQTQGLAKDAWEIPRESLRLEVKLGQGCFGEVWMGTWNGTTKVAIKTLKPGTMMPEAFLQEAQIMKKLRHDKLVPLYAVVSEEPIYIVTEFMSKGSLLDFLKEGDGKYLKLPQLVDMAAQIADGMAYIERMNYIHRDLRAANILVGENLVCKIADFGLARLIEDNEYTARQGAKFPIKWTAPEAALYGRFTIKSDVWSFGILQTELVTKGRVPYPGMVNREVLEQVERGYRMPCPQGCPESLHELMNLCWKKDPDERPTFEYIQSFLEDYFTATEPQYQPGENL
Structure (SMILES),IC50 [1] [nM],IC50 [2] [nM],IC50 [3] [nM]
"Cc1cc(Oc2ccccc2F)ccc1-n1ncc(C(=O)c2cc3cc(N4CCOCC4)c(N4CCC(N5CCOCC5)CC4)cc3[nH]2)c1N [Example 5-1-124, [5-amino-1-[4-(2-fluorophenoxy)-2-methylphenyl]pyrazol-4-yl]-[5-morpholin-4-yl-6-(4-morpholin-4-ylpiperidin-1-yl)-1H-indol-2-yl]methanone]",0.99,70,10
"Cc1cc(Oc2ccccc2F)ccc1-n1ncc(C(=O)c2cc3cc(F)c(N4C(=O)NC(C)(C)C4=O)cc3[nH]2)c1N [Example 5-1-127, 3-[2-[5-amino-1-[4-(2-fluorophenoxy)-2-methylphenyl]pyrazole-4-carbonyl]-5-fluoro-1H-indol-6-yl]-5,5-dimethylimidazolidine-2,4-dione]",0.67,39,4
"COc1cc2cc(C(=O)c3cnn(-c4c(C)cc(Oc5ccccc5F)cc4F)c3N)[nH]c2cc1NS(=O)(=O)CC(=O)N1CCCC1 [Example 5-1-130, N-[2-[5-amino-1-[2-fluoro-4-(2-fluorophenoxy)-6-methylphenyl]pyrazole-4-carbonyl]-5-methoxy-1H-indol-6-yl]-2-oxo-2-pyrrolidin-1-ylethanesulfonamide]",0.56,13,3.8
"CC(=O)N1CCC(c2cc3[nH]c(C(=O)c4cnn(-c5ccc(Oc6ccccc6F)cc5C)c4N)cc3cc2C)CC1 [Example 5-1-132, 1-[4-[2-[5-amino-1-[4-(2-fluorophenoxy)-2-methylphenyl]pyrazole-4-carbonyl]-5-methyl-1H-indol-6-yl]piperidin-1-yl]ethanone]",0.71,6.6,3.3
"Cc1cc2cc(C(=O)c3cnn(-c4cnc(Oc5c(F)cccc5F)cc4C)c3N)[nH]c2cc1NS(=O)(=O)CC(=O)NC(C)C [Example 5-1-136, 2-[[2-[5-amino-1-[6-(2,6-difluorophenoxy)-4-methylpyridin-3-yl]pyrazole-4-carbonyl]-5-methyl-1H-indol-6-yl]sulfamoyl]-N-propan-2-ylacetamide]",1.5,27,23
"COc1cc2cc(C(=O)c3cnn(-c4c(C)cc(Oc5ccccc5F)cc4F)c3N)[nH]c2cc1NS(=O)(=O)CC(=O)NC(C)C [Example 5-1-137, 2-[[2-[5-amino-1-[2-fluoro-4-(2-fluorophenoxy)-6-methylphenyl]pyrazole-4-carbonyl]-5-methoxy-1H-indol-6-yl]sulfamoyl]-N-propan-2-ylacetamide]",1.3,41,29
"CC(=O)N1CCC(c2cc3[nH]c(C(=O)c4cnn(-c5c(C)cc(Oc6ccccc6F)cc5F)c4N)cc3cc2C)CC1 [Example 5-1-138, 1-[4-[2-[5-amino-1-[2-fluoro-4-(2-fluorophenoxy)-6-methylphenyl]pyrazole-4-carbonyl]-5-methyl-1H-indol-6-yl]piperidin-1-yl] ethanone]",3.1,68,42
"Cc1cc2cc(C(=O)c3cnn(-c4c(C)cc(Oc5c(F)cccc5F)cc4F)c3N)[nH]c2cc1NS(C)(=O)=O [Example 5-1-140, N-[2-[5-amino-1-[4-(2,6-difluorophenoxy)-2-fluoro-6-methylphenyl]pyrazole-4-carbonyl]-5-methyl-1H-indol-6-yl]methanesulfonamide]",2.8,48,24

# Further compounds by falling IC50 [1], results first:
IC50 [1] [nM],IC50 [2] [nM],IC50 [3] [nM],Structure (SMILES)
1.8,23,25,"CC(=O)N1CCC(c2cc3[nH]c(C(=O)c4cnn(-c5cnc(Oc6c(F)cccc6F)cc5C)c4N)cc3cc2C)CC1 [Example 5-1-139, 1-[4-[2-[5-amino-1-[6-(2,6-difluorophenoxy)-4-methylpyridin-3-yl]pyrazole-4-carbonyl]-5-methyl-1H-indol-6-yl]piperidin-1-yl]ethanone]"
1.1,7.4,5.6,"Cc1cc2cc(C(=O)c3cnn(-c4ccc(Oc5ccccc5F)cc4C)c3N)[nH]c2cc1C1CCN(S(=O)(=O)C2CC2)CC1 [Example 5-1-131, [5-amino-1-[4-(2-fluorophenoxy)-2-methylphenyl]pyrazol-4-yl]-[6-(1-cyclopropylsulfonylpiperidin-4-yl)-5-methyl-1H-indol-2-yl]methanone]"
0.87,64,15,"Cc1cc(Oc2ccccc2F)ccc1-n1ncc(C(=O)c2cc3cc(F)c(N4C(=O)C(C)(C)NC4=S)cc3[nH]2)c1N [Example 5-1-126, 3-[2-[5-amino-1-[4-(2-fluorophenoxy)-2-methylphenyl]pyrazole-4-carbonyl]-5-fluoro-1H-indol-6-yl]-5,5-dimethyl-2-sulfanylideneimidazolidin-4-one]"
0.84,12,5.3,"Cc1cc(Oc2ccccc2F)ccc1-n1ncc(C(=O)c2cc3cc(F)c(NC4CCN(S(C)(=O)=O)CC4)cc3[nH]2)c1N [Example 5-1-135, [5-amino-1-[4-(2-fluorophenoxy)-2-methylphenyl]pyrazol-4-yl]-[5-fluoro-6-[(1-methylsulfonylpiperidin-4-yl)amino]-1H-indol-2-yl]methanone]"
0.75,23,3.8,"Cc1cc(Oc2ccccc2F)ccc1-n1ncc(C(=O)c2cc3cc(F)c(N4CCC(N5CCOCC5)CC4)cc3[nH]2)c1N [Example 5-1-128, [5-amino-1-[4-(2-fluorophenoxy)-2-methylphenyl]pyrazol-4-yl]-[5-fluoro-6-(4-morpholin-4-ylpiperidin-1-yl)-1H-indol-2-yl] methanone]"
0.71,33,9.2,"Cc1cc(Oc2ccccc2F)ccc1-n1ncc(C(=O)c2cc3cc(F)c(N4CCN(S(C)(=O)=O)CC4)cc3[nH]2)c1N [Example 5-1-125, [5-amino-1-[4-(2-fluorophenoxy)-2-methylphenyl]pyrazol-4-yl]-[5-fluoro-6-(4-methylsulfonylpiperazin-1-yl)-1H-indol-2-yl] methanone]"
0.63,6.1,2.5,"CC(=O)N1CCC(c2cc3[nH]c(C(=O)c4cnn(-c5cnc(Oc6ccccc6F)cc5C)c4N)cc3cc2C)CC1 [Example 5-1-133, 1-[4-[2-[5-amino-1-[6-(2-fluorophenoxy)-4-methylpyridin-3-yl]pyrazole-4-carbonyl]-5-methyl-1H-indol-6-yl]piperidin-1-yl]ethanone]"
0.61,7.3,4.6,"Cc1cc(Oc2ccccc2F)ccc1-n1ncc(C(=O)c2cc3cc(N4CCOCC4)c(NC4CCN(S(C)(=O)=O)CC4)cc3[nH]2)c1N [Example 5-1-129, [5-amino-1-[4-(2-fluorophenoxy)-2-methylphenyl]pyrazol-4-yl]-[6-[(1-methylsulfonylpiperidin-4-yl)amino]-5-morpholin-4-yl-1H-indol-2-yl]methanone]"
0.37,4.6,2.1,"Cc1cc(Oc2c(F)cccc2F)ncc1-n1ncc(C(=O)c2cc3cc(OC4CCN(C(C)C)CC4)c(Br)cc3[nH]2)c1N [Example 5-1-134, [5-amino-1-[6-(2,6-difluorophenoxy)-4-methylpyridin-3-yl]pyrazol-4-yl]-[6-bromo-5-(1-propan-2-ylpiperidin-4-yl)oxy-1H-indol-2-yl] methanone]"
